Results published in patent US8017828B2, “Utilization of rare sugars in plant or microorganism” (Shikoku Research Institute Incorporated, priority 2004, dated 2011).

Tests used:
[1] = test system: stress/hormone response genes; format: in vivo, Lotus japonicus; conditions: for activation of gene group that responds to pathogenic bacteria and environmental stresses: 5 mM in medium, first one week
Method: A pattern of induction of a gene in the case where D-psicose was added to a medium for Lotus japonicus was examined by an experiment using a cDNA array.
Lotus japonicus was germinated from a seed and cultivated in an L&B medium (hydroponic culture medium). When the seed was germinated, Mesorhizobium loti was also inoculated. This condition was applied to both a control plot and a plot of D-psicose addition. With regard to the array, a microarray on which 14,000 clones were immobilized by using a Lotus japonicus cDNA array was used. After test plants were germinated, they were cultivated with an L&B medium supplemented with D-psicose or without addition for 1 week in a growth cabinet (22° C., 30,000 Lux). After total RNA was extracted from the plant body, it was labeled with ^33P in the process where it was converted to cDNA, and then hybridization was carried out. Reading was carried out using STORM 850 and analysis was carried out with Array Vision.

[2] = test system: seeds of vegetables, ornamental plants, herbs, fruit trees, grains and feed crops; test: Seed germination, continuous treatment (Experiment 1); format: in vivo
Text: Seeds of vegetables (11 families and 51 species or varieties); ornamental plants (19 families and 47 species or varieties); […] (4 families and 14 species or varieties); fruit trees (3 families and 3 species or varieties); grains (1 family and 3 species or varieties); and feed crops (1 family and 3 species or varieties) were continuously treated with any of 4 types of solutions of deionized water (control), 1% D-fructose, 1% D-psicose and 0.5% D-fructose+0.5% D-psicose and germinated under the condition of 25° C., 35 μmol·m^−2·s^−1, and 16-hour lighting or 16-hour dark. As for the number of seeds, 50 seeds were used for each solution basically, and when the number of seeds was small, the seeds were distributed in such a manner that the number of seeds for each solution became equal. The seeds were sown in a dish with a diameter of 9 cm having a filter paper placed therein or when the seeds were large, they were sown in a styrol container with a diameter of 10 cm and a height of 45 mm. Then, 10 ml or 50 ml of any of the solutions was poured therein, and deionized water was suitably added depending on the transpiration.

Salsola komarovii = test: Seed germination, short-time and continuous treatment (Experiment 2); format: in vivo; conditions: for germination rate: immersed in 1% solution for 24 hours, in the end, DW 28%
Method: In order to clarify an effect of a short-time treatment, 50 seeds of Salsola komarovii, tomato (Home Momotaro) and sunny lettuce (Red Wave), and 20 seeds of morning glory (Tairin Zaki Kongo) were immersed in any of deionized water, 1% D-psicose, 1% D-allose and 1% L-galactose for 24 hours (25° C., dark), respectively, then, they were lightly washed with deionized water. Then, the seeds were sown in a dish with a diameter of 9 cm having a filter paper placed therein, and germinated under the same condition by poring 5 to 10 ml of deionized water therein. Further, for the comparison, a continuous treatment with 1% D-psicose was carried out in accordance with the same procedure.

[3] = test system: rice plant (variety: Nihonbare); test: Growth of rice seedlings in hydroponic culture with D-psicose; format: in vivo
[4] = test system: PBZ1, chitinase gene (PCG3), PAL gene; test: Northern blot of genes related to resistance in rice after D-psicose treatment; format: in vivo
Method: A seedling of a rice plant (variety: Nihonbare, see FIG. 10, the middle of the photograph, the white bar: 5 mm) at day 5 after sowing was used for an experiment. The rice seedling was raised by hydroponic culture in a pot using Kimura B solution. The Kimura B solution was supplemented with D-psicose at each concentration. While the solution was replaced with the same solution every 5 days, cultivation was carried out for 10 days. Thereafter, the seedling was transplanted to a pot filled with soil, and then, cultivation was carried out with natural light in a glass chamber for 7 days. Then, total RNA was extracted and a Northern blot analysis was carried out.

[5] = test system: Aspergillus niger, Cladosporium cladosporioides and Penicillium chrysogenum; test: Mycelial elongation of filamentous fungi on agar with rare sugar; format: cell-based; conditions: 0.05% (w/v) in agar medium, 25° C., 4 days
Method: By using as targets, Aspergillus niger, Cladosporium cladosporioides and Penicillium chrysogenum, which are typical filamentous fungi and generally seen in a living environment, an effect of a rare sugar on mycelial elongation was examined.
As the test fungal strains, NBRC 4066 strain, NBRC 4459 strain and NBRC 4626 strain were used.
Each test fungal strain was cultured on a potato dextrose agar medium at 25° C. for 7 days, and one in which the mycelium extended over the surface of the dish was pushed out along with the agar medium in such a manner that the agar medium was in a disc form with a diameter of 1.1 cm, which was placed at the center of a dish filled with an agar medium (1% Bacto agar) supplemented with any of a variety of rare sugars (allitol, D-altrose, L-mannose, L-galactose, D-tagatose, D-sorbose, D-psicose, D-allose, D-glucose and D-fructose) at 0.05% (w/v) and cultured at 25° C. for 4 days. After the cultivation, the length of the mycelium extending on the surface of the culture medium was measured. Two culture media were prepared for each test plot, and the mycelial length represents the average thereof.

[6] = 1% continuous, 41 species listed
[7] = 0.5 mM, hydroponic culture for 10 days
[8] = 0.5 mM for 10 days, 1 week after transplanting

O=C(CO)[C@H](O)[C@H](O)[C@H](O)CO [D-psicose]
activation of gene group that responds to pathogenic bacteria and environmental stresses [1]: activated | expression of a gene group regulated by plant hormones such as auxin ([1]; about 0.1 mM in medium): an increase or a decrease in the expression | Expression ratio (D-psicose/water): auxin response factor 6 (ARF6) ([1]; psicose: 0.1 mM, 1 week): 2.5 | Expression ratio (D-psicose/water): auxin-binding protein T85 precursor (ABP) ([1]; psicose: 0.1 mM, 1 week): 2.4 | Expression ratio (D-psicose/water): chitinase ([1]; psicose: 0.1 mM, 1 week): 2.2 | Expression ratio (D-psicose/water): chitinase (EC 3.2.1.14) class II ([1]; psicose: 0.1 mM, 1 week): 2.2 | Expression ratio (D-psicose/water): glycine-rich RNA-binding, abscisic acid-inducible protein ([1]; psicose: 0.1 mM, 1 week): 2.5 | Expression ratio (D-psicose/water): metal stress-regulated protein SR7 ([1]; psicose: 0.1 mM, 1 week): 2.4 | Expression ratio (D-psicose/water): pathogen-inducible alpha-dioxygenase ([1]; psicose: 0.1 mM, 1 week): 2.4 | Expression ratio (D-psicose/water): putative WD-40 repeat protein ([1]; psicose: 0.1 mM, 1 week): 2.2 | Expression ratio (D-psicose/water): turgor-responsive protein 26G ([1]; psicose: 0.1 mM, 1 week): 2.3 | Expression ratio (D-psicose/water): ACC oxidase ([1]; psicose: 5 mM, 1 week): 5.1 | Expression ratio (D-psicose/water): PDR5-like ABC transporter ([1]; psicose: 5 mM, 1 week): 10.8 | Expression ratio (D-psicose/water): PR-10-1 protein ([1]; psicose: 5 mM, 1 week): 5.5 | Expression ratio (D-psicose/water): auxin response factor like protein ([1]; psicose: 5 mM, 1 week): 5.6 | Expression ratio (D-psicose/water): chalcone synthase ([1]; psicose: 5 mM, 1 week): 5.4 | Expression ratio (D-psicose/water): class I chitinase ([1]; psicose: 5 mM, 1 week): 13.2 | germination ([2]; 1% continuous, 32 species listed): Inhibition of Germination | germination [2, 6]: Inhibited | elongation of roots ([2]; 1% continuous, Diospyros kaki): inhibited | germination ([2]; 1% continuous, Myosotis scorpioides and Chinese lantern plant (2 species)): Significantly Inhibited | germination ([2]; 1% continuous, Salsola komarovii, Diospyros kaki, Clarkia amoena (3 species)): Not Affected or was Promoted Slightly | germination ([2]; many plants in the Brassica family): inhibited | germination (Salsola komarovii; continuous treatment with 1%): promoted | germination rate (Salsola komarovii): 28% | Number of roots ([3]; 0.5 mM): no change | Number of roots ([3]; 0.5 mM D-psicose, Day 10 after germination, non-treated 7.00 ± 0.6): 7.00 ± 0.6 roots | Seed root length ([3]; 0.5 mM D-psicose, Day 10 after germination, non-treated 7.58 ± 0.23): 5.15 ± 0.26 cm | Plant length ([3]; 0.5 mM D-psicose, Day 10 after germination, non-treated 12.08 ± 0.21): 5.29 ± 0.58 cm | root length inhibited by [3, 7]: 67% | seedling length inhibited by [3, 7]: 43% | Plant length, percentage of the relative value to untreated plot ([3]; 7 days (1 week) after transplantation to pot, after 0.5 mM D-psicose): 52.4% | Plant length ([3]; 7 days after transplantation to pot, after 0.5 mM D-psicose treatment, untreated 31.4 ± 0.5): 16.5 ± 2.4 cm | Plant length ([3]; 14 days after transplantation to pot, after 0.5 mM D-psicose treatment, untreated 44.7 ± 0.1): 35.3 ± 2.1 cm | inhibition at 100 µM ([3]; Oryza sativa, 0.1 mM): 30% | time to recover to the size equal to that of the untreated plot after transplanting to soil ([3]; after 0.5 mM treatment, raised without D-psicose): about 3 weeks | growth relative to the untreated plot ([3]; until 0.05 mM (0.005 to 0.05 mM)): > 98% | expression of genes related to rice disease resistance in leaves ([4]; 0.5 mM 10 days, then one week in soil without D-psicose): induction | induction of PBZ1 [4, 8]: strongly observed | induction of chitinase gene (PCG3) [4, 8]: strongly observed | effect on PAL gene ([4]; constantly expressed gene): no effect | expression of PBZ1 and chitinase gene (PCG3) ([4]; treated plots of from 0.0005 to 0.1 mM): not expressed | effect on mycelial elongation [5]: have an effect of inhibiting mycelial elongation

O=C(CO)[C@@H](O)[C@H](O)[C@H](O)CO [D-fructose, reference compound]
activation of gene group that responds to pathogenic bacteria and environmental stresses [1]: not observed | effect on inhibition of germination by D-psicose ([2]; 0.5% D-fructose+0.5% D-psicose, 32 species listed): Mitigated | germination [2, 6]: Inhibited | germination ([2]; 1% continuous, Lemon Balm and Green Pea (2 species)): Promoted

O=C[C@H](O)[C@H](O)[C@H](O)[C@H](O)CO [D-allose]
germination rate (Salsola komarovii): 16% | effect on mycelial elongation [5]: have an effect of inhibiting mycelial elongation
